In ChEMBL document CHEMBL1201862, “PubChem BioAssay data set” (2004):
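Dose response: 5 concentrations. Exposure: 48 h. Format: 96-well plates. Endpoint: linear interpolation; highest concentration if not reached. At the GI50, growth is halved.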 The source made the active and inactive calls. Cut-off read from the data, not from the text of the source: active = GI50 up to about 1.1 µM and inactive = higher.

Assays:
Assay in all cases: NCI tumour cell line growth inhibition, 48 h
COLO 205 = tested on: COLO 205
OVCAR-8 = tested on: OVCAR-8
HCC 2998 = tested on: HCC 2998
MCF7 = tested on: MCF7
SNB-19 = tested on: SNB-19
CCRF-CEM = tested on: CCRF-CEM
SK-MEL-2 = tested on: SK-MEL-2
TK-10 = tested on: TK-10
LOX IMVI = tested on: LOX IMVI
HL-60 = tested on: HL-60
Malme-3M = tested on: Malme-3M
SF-268 = tested on: SF-268
U-251 = tested on: U-251
RPMI-8226 = tested on: RPMI-8226
RXF 393 = tested on: RXF 393
IGROV-1 = tested on: IGROV-1
K562 = tested on: K562
SN12C = tested on: SN12C
OVCAR-3 = tested on: OVCAR-3
HT-29 = tested on: HT-29

Structure (SMILES): CC(/C=N/N=C(N)N)=N\N=C(N)N
- GI50 (COLO 205): 3.02 µM (inactive)
- GI50 (OVCAR-8): 4.55 µM (inactive)
- GI50 (HCC 2998): 5.57 µM (inactive)
- GI50 (MCF7): 27.4 µM (inactive)
- GI50 (SNB-19): 36.1 µM (inactive)
- GI50 (CCRF-CEM): 4.73 µM (inactive)
- GI50 (SK-MEL-2): 12.8 µM (inactive)
- GI50 (TK-10): 44.7 µM (inactive)
- GI50 (LOX IMVI): 4.18 µM (inactive)
- GI50 (HL-60): 7.24 µM (inactive)
- GI50 (Malme-3M): 33.9 µM (inactive)
- GI50 (SF-268): 3.56 µM (inactive)
- GI50 (U-251): 18.5 µM (inactive)
- GI50 (RPMI-8226): 12.1 µM (inactive)
- GI50 (RXF 393): 32.3 µM (inactive)
- GI50 (IGROV-1): 279 µM (inactive)
- GI50 (K562): 8.73 µM (inactive)
- GI50 (SN12C): 106 µM (inactive)
- GI50 (OVCAR-3): 6.11 µM (inactive)

Structure (SMILES): COc1cc(C(C)O)c(S(=O)(=O)CC(C)O)nn1 (stereo not drawn)
- GI50 (HT-29): > 100 µM (inactive)
- GI50 (COLO 205): > 100 µM (inactive)
- GI50 (OVCAR-8): > 100 µM (inactive)
- GI50 (HCC 2998): > 100 µM (inactive)
- GI50 (MCF7): > 100 µM (inactive)
- GI50 (SNB-19): > 100 µM (inactive)
- GI50 (CCRF-CEM): > 100 µM (inactive)
- GI50 (TK-10): > 100 µM (inactive)
- GI50 (LOX IMVI): > 100 µM (inactive)
- GI50 (HL-60): > 100 µM (inactive)
- GI50 (Malme-3M): > 100 µM (inactive)
- GI50 (RPMI-8226): 43.9 µM (inactive)
- GI50 (RXF 393): 85.3 µM (inactive)
- GI50 (IGROV-1): > 100 µM (inactive)
- GI50 (K562): 72.9 µM (inactive)
- GI50 (SN12C): > 100 µM (inactive)
- GI50 (OVCAR-3): > 100 µM (inactive)

Structure (SMILES): CC1=CC2c3cccc4[nH]cc(c34)CC2N(C)C1 (stereo not drawn)
- GI50 (HT-29): 49.4 µM (inactive)
- GI50 (COLO 205): 55.6 µM (inactive)
- GI50 (OVCAR-8): > 100 µM (inactive)
- GI50 (HCC 2998): 25.5 µM (inactive)
- GI50 (MCF7): 95.1 µM (inactive)
- GI50 (SNB-19): > 100 µM (inactive)
- GI50 (CCRF-CEM): > 91.6 µM (inactive)
- GI50 (SK-MEL-2): > 100 µM (inactive)
- GI50 (LOX IMVI): 70.8 µM (inactive)
- GI50 (HL-60): 31.6 µM (inactive)
- GI50 (Malme-3M): 30.3 µM (inactive)
- GI50 (SF-268): > 100 µM (inactive)
- GI50 (U-251): > 100 µM (inactive)
- GI50 (RPMI-8226): > 100 µM (inactive)
- GI50 (RXF 393): > 100 µM (inactive)
- GI50 (IGROV-1): > 100 µM (inactive)
- GI50 (K562): 32.7 µM (inactive)
- GI50 (SN12C): > 89.5 µM (inactive)
- GI50 (OVCAR-3): > 100 µM (inactive)

Structure (SMILES): CC1=C[C@]2(CC(C)C3C(CC4(C)C5CCC6C(C)(C)C(=O)CC[C@@]67C[C@@]57CC[C@]34C)O2)OC1=O (stereo partly drawn)
- GI50 (HT-29): 9.31 µM (inactive)
- GI50 (COLO 205): 36.9 µM (inactive)
- GI50 (OVCAR-8): 25.2 µM (inactive)
- GI50 (HCC 2998): 18.1 µM (inactive)
- GI50 (SNB-19): 15.7 µM (inactive)
- GI50 (CCRF-CEM): > 100 µM (inactive)
- GI50 (SK-MEL-2): 34.4 µM (inactive)
- GI50 (TK-10): 26 µM (inactive)
- GI50 (LOX IMVI): 3.46 µM (inactive)
- GI50 (HL-60): 0.968 µM (active)
- GI50 (Malme-3M): 44.4 µM (inactive)
- GI50 (SF-268): 33.9 µM (inactive)
- GI50 (U-251): 14.6 µM (inactive)
- GI50 (RPMI-8226): 9.2 µM (inactive)
- GI50 (RXF 393): 5.11 µM (inactive)
- GI50 (IGROV-1): 6.32 µM (inactive)
- GI50 (K562): 4.03 µM (inactive)
- GI50 (SN12C): 41.1 µM (inactive)

Structure (SMILES): CCOC(C)OC1CC(n2cc(C)c(=O)[nH]c2=O)OC1CO (stereo not drawn)
- GI50 (HT-29): > 100 µM (inactive)
- GI50 (COLO 205): > 100 µM (inactive)
- GI50 (OVCAR-8): > 100 µM (inactive)
- GI50 (HCC 2998): > 100 µM (inactive)
- GI50 (SNB-19): > 100 µM (inactive)
- GI50 (CCRF-CEM): 82.6 µM (inactive)
- GI50 (SK-MEL-2): > 100 µM (inactive)
- GI50 (TK-10): > 100 µM (inactive)
- GI50 (LOX IMVI): > 100 µM (inactive)
- GI50 (HL-60): > 100 µM (inactive)
- GI50 (Malme-3M): > 100 µM (inactive)
- GI50 (SF-268): > 100 µM (inactive)
- GI50 (U-251): > 100 µM (inactive)
- GI50 (RPMI-8226): > 100 µM (inactive)
- GI50 (RXF 393): > 100 µM (inactive)
- GI50 (IGROV-1): > 100 µM (inactive)
- GI50 (K562): > 100 µM (inactive)
- GI50 (SN12C): > 100 µM (inactive)
- GI50 (OVCAR-3): > 100 µM (inactive)

Structure (SMILES): Nc1ncc2c(n1)-c1ccccc1OC2
- GI50 (HT-29): > 100 µM (inactive)
- GI50 (COLO 205): > 100 µM (inactive)
- GI50 (OVCAR-8): > 100 µM (inactive)
- GI50 (HCC 2998): > 100 µM (inactive)
- GI50 (MCF7): > 100 µM (inactive)
- GI50 (SNB-19): > 100 µM (inactive)
- GI50 (CCRF-CEM): > 100 µM (inactive)
- GI50 (SK-MEL-2): > 100 µM (inactive)
- GI50 (LOX IMVI): > 100 µM (inactive)
- GI50 (HL-60): > 100 µM (inactive)
- GI50 (Malme-3M): > 100 µM (inactive)
- GI50 (SF-268): > 100 µM (inactive)
- GI50 (U-251): > 100 µM (inactive)
- GI50 (RPMI-8226): > 100 µM (inactive)
- GI50 (RXF 393): > 69.2 µM (inactive)
- GI50 (IGROV-1): 40.4 µM (inactive)
- GI50 (K562): > 100 µM (inactive)
- GI50 (SN12C): > 100 µM (inactive)
- GI50 (OVCAR-3): > 100 µM (inactive)

Structure (SMILES): O=S(=O)(O)c1cc2ccc1/C=C\c1ccc(cc1S(=O)(=O)O)/N=N\c1ccc(c(S(=O)(=O)O)c1)/C=C\c1ccc(cc1S(=O)(=O)O)/N=N\2
- GI50 (HT-29): > 100 µM (inactive)
- GI50 (COLO 205): > 100 µM (inactive)
- GI50 (OVCAR-8): > 100 µM (inactive)
- GI50 (HCC 2998): > 100 µM (inactive)
- GI50 (MCF7): > 100 µM (inactive)
- GI50 (SNB-19): > 100 µM (inactive)
- GI50 (CCRF-CEM): > 100 µM (inactive)
- GI50 (SK-MEL-2): > 100 µM (inactive)
- GI50 (LOX IMVI): > 100 µM (inactive)
- GI50 (HL-60): > 100 µM (inactive)
- GI50 (Malme-3M): > 100 µM (inactive)
- GI50 (SF-268): > 100 µM (inactive)
- GI50 (U-251): > 100 µM (inactive)
- GI50 (RPMI-8226): > 100 µM (inactive)
- GI50 (RXF 393): > 100 µM (inactive)
- GI50 (IGROV-1): > 100 µM (inactive)
- GI50 (K562): > 100 µM (inactive)
- GI50 (SN12C): > 100 µM (inactive)
- GI50 (OVCAR-3): > 100 µM (inactive)

Structure (SMILES): COc1cc([C@@H]2c3cc4c(c(O[C@@H]5O[C@H]6CO[C@@H](C)O[C@H]6[C@H](O)[C@@H]5O)c3C[C@H]3COC(=O)[C@@H]32)OCO4)cc(OC)c1O
- GI50 (HT-29): 33.7 µM (inactive)
- GI50 (COLO 205): 38.8 µM (inactive)
- GI50 (OVCAR-8): 6.64 µM (inactive)
- GI50 (HCC 2998): 26.9 µM (inactive)
- GI50 (MCF7): 4.15 µM (inactive)
- GI50 (SNB-19): 23.7 µM (inactive)
- GI50 (CCRF-CEM): 11.9 µM (inactive)
- GI50 (SK-MEL-2): 27.3 µM (inactive)
- GI50 (LOX IMVI): 4.73 µM (inactive)
- GI50 (HL-60): 4.41 µM (inactive)
- GI50 (Malme-3M): > 29.9 µM (inactive)
- GI50 (U-251): 8.17 µM (inactive)
- GI50 (RPMI-8226): 47.5 µM (inactive)
- GI50 (RXF 393): 3.64 µM (inactive)
- GI50 (IGROV-1): 8.61 µM (inactive)
- GI50 (K562): 4.53 µM (inactive)
- GI50 (SN12C): 12.6 µM (inactive)
- GI50 (OVCAR-3): 6.76 µM (inactive)
